How the values were obtained:
[1] = target: T1, SYK kinase (Homo sapiens, UniProt P43405); assay: SYK Assay (OMNIA Kinase Assay, SOX peptide fluorescence); type: biochemical; details: 1 mM ATP, 10 μM Omnia Peptide Substrate Tyr 7, 30° C., readings for 30 minutes; read-out: SYK Activities: IC50
T1 construct: purchased Invitrogen, Carlsbad
Method: In the assay OMNIA® KINASE ASSAY by Invitrogen Corporation (Carlsbad) the effect of invention of a compound on the phosphorylation is determined by measurement of fluorescence intensity of a chelation-enhanced fluorophore called SOX. Upon phosphorylation of the peptide by the kinase of interest, Mg2+ is chelated to form a bridge between the SOX moiety and the phosphate group that is transferred to the specific tyrosine on the peptide. The fluorescence intensity is directly proportional to the amount of peptide phosphorylation.
To the wells of an 384 well small volume plate (Greiner, Frickenhausen) are added (i) the compound under test in 5% DMSO/distilled water (2 μl), (ii) 16 μl of the master mix containing ATP, DTT, Kinase Reaction Buffer, Omina Peptide Substrate Tyr 7 resulting in a final concentration of 1 mM ATP, 0.2 mM DTT and 10 μM Peptide Substrate.
The Master Mix and the assay plate was incubated to reaction temperature before the measurement (30° C.). The reaction was started with addition of (iii) 2 μl 4 μg/ml SYK kinase (Invitrogen, Carlsbad). During measurement fluorescence intensity readings were collected using a TECAN M1000 at a wavelength of λex 360/λem 485 nm every 30 s for 30 minutes. The reaction velocity was plotted versus the inhibitor concentration to determine the IC50 using XLFit 5.0 (IDBS, Guildford) to fit to a sigmoidal dose response curve.

[2] = target: LRRK2 (Homo sapiens, UniProt Q5S007); assay: LRRK2-LRRK2 G2019S-Assay (LanthaScreen Eu Kinase Binding Assay); details: 5 nM LRRK2, 10 nM tracer 236, 2 nM EU-Anti-GST antibody, 1 h at RT; read-out: LRRK2 Activities: IC50
Procedure, shortened: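 In a TR-FRET tracer displacement assay, LRRK2 or its mutants at 5 nM were mixed with 2 nM Eu-anti-GST antibody and 10 nM tracer 236 in kinase buffer A for 1 h at RT. The 665/615 nm emission ratio was plotted against inhibitor concentration, and IC50 came from a variable-slope sigmoidal fit.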

Sequence of LRRK2 (Q5S007 970-2527 limits assumed): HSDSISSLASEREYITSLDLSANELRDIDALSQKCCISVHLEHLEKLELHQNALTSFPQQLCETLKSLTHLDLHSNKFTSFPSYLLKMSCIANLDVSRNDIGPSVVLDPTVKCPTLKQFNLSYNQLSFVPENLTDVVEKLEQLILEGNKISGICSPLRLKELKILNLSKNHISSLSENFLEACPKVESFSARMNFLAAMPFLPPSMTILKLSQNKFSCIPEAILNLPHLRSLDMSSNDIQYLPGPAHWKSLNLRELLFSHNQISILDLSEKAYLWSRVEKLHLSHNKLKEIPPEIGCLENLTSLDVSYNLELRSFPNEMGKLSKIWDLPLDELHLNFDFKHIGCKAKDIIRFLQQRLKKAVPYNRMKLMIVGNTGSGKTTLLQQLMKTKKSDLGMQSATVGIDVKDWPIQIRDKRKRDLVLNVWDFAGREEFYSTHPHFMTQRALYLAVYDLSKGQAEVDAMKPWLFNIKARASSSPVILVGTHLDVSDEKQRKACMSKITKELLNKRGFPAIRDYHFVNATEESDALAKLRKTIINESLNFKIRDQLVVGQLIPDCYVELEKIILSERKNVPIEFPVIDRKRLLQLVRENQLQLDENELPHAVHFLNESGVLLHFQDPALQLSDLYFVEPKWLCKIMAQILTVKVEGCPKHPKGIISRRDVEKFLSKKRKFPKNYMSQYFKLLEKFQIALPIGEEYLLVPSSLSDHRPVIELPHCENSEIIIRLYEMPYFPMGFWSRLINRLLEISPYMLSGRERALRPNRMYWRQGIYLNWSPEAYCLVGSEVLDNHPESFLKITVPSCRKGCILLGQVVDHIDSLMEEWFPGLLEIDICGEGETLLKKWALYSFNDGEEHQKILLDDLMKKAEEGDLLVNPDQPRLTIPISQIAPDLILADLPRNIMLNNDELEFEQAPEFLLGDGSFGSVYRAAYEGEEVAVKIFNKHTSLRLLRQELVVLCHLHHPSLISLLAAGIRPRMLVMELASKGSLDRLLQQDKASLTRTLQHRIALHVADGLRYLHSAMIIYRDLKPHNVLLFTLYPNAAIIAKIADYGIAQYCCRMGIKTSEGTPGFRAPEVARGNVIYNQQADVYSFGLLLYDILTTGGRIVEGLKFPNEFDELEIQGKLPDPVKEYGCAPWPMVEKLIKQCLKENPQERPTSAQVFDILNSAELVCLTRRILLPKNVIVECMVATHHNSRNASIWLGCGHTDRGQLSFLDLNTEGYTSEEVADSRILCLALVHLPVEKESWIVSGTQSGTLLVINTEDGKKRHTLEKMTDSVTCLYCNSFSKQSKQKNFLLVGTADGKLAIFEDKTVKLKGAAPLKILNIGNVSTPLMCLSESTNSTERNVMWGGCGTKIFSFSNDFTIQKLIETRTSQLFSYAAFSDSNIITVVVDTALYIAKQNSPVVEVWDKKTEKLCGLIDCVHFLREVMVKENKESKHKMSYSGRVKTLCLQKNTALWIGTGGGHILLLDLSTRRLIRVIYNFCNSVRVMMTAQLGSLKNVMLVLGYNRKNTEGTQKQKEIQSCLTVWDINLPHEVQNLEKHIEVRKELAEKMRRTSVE

SMILES	IC50 [1] [nM]	IC50 [2] [nM]
CS(=O)(=O)c1cccc(Nc2nc3ccc(S(C)(=O)=O)cc3c3cn[nH]c23)c1 [Example 78, 8-(methylsulfonyl)-N-(3-(methylsulfonyl)phenyl)-3H-pyrazolo[3,4-c]quinolin-4-amine]	100 to 1000	10 to 100
COc1cccc2nc(Nc3ccc(N4CCN(C)CC4)nc3)c3[nH]ncc3c12 [Example 79, 9-methoxy-N-(6-(4-methylpiperazin-1-yl)pyridin-3-yl)-3H-pyrazolo[3,4-c]quinolin-4-amine]	100 to 1000	10 to 100
CN1CCN(c2ccc(Nc3nc4ccc(S(C)(=O)=O)cc4c4cn[nH]c34)cn2)CC1 [Example 81, N-(6-(4-methylpiperazin-1-yl)pyridin-3-yl)-8-(methylsulfonyl)-3H-pyrazolo[3,4-c]quinolin-4-amine]	100 to 1000	10 to 100
COc1ccc2nc(Nc3cnn(C)c3)c3n[nH]cc3c2c1 [Example 83, 8-methoxy-N-(1-methyl-1H-pyrazol-4-yl)-2H-pyrazolo[3,4-c]quinolin-4-amine]	100 to 1000	10 to 100
COc1ccc2nc(Nc3cnn(C4CCOCC4)c3)c3n[nH]cc3c2c1 [Example 85, 8-methoxy-N-(1-(tetrahydro-2H-pyran-4-yl)-1H-pyrazol-4-yl)-2H-pyrazolo[3,4-c]quinolin-4-amine]	100 to 1000	10 to 100
COc1ccc2nc(Nc3ccc(N4CCC(N5CCOCC5)CC4)cc3)c3n[nH]cc3c2c1 [Example 86, 8-methoxy-N-(4-(4-morpholinopiperidin-1-yl)phenyl)-2H-pyrazolo[3,4-c]quinolin-4-amine]	100 to 1000	100 to 1000
CS(=O)(=O)c1cccc2nc(Nc3ccc4c(c3)NC(=O)CCC4)c3[nH]ncc3c12 [Example 98, 8-((9-(methylsulfonyl)-3H-pyrazolo[3,4-c]quinolin-4-yl)amino)-4,5-dihydro-1H-benzo[b]azepin-2(3H)-one]	100 to 1000	10 to 100
CS(=O)(=O)c1ccc2c(c1)nc(Nc1ccc(N3CCOCC3)cc1)c1[nH]ncc12 [Example 101, 7-(methylsulfonyl)-N-(4-morpholinophenyl)-3H-pyrazolo[3,4-c]quinolin-4-amine]	100 to 1000	10 to 100
CS(=O)(=O)c1cccc2nc(Nc3cnn(C4CCOCC4)c3)c3[nH]ncc3c12 [Example 108, 9-(methylsulfonyl)-N-(1-(tetrahydro-2H-pyran-4-yl)-1H-pyrazol-4-yl)-3H-pyrazolo[3,4-c]quinolin-4-amine]	100 to 1000	10 to 100
COCCn1cc(Nc2nc3ccc(OC)cc3c3c[nH]nc23)cn1 [Example 109, 8-methoxy-N-(1-(2-methoxyethyl)-1H-pyrazol-4-yl)-2H-pyrazolo[3,4-c]quinolin-4-amine]	100 to 1000	10 to 100
COCCn1cc(Nc2nc3cc(S(C)(=O)=O)ccc3c3cn[nH]c23)cn1 [Example 170, N-(1-(2-methoxyethyl)-1H-pyrazol-4-yl)-7-(methylsulfonyl)-3H-pyrazolo[3,4-c]quinolin-4-amine]	100 to 1000	100 to 1000

The next lines start with the values.

IC50 [1] [nM]	IC50 [2] [nM]	SMILES
10 to 100	10 to 100	CN1CCN(C(=O)c2ccc(Nc3nc4ccc(S(C)(=O)=O)cc4c4cn[nH]c34)cc2)CC1 [Example 65, (4-methylpiperazin-1-yl)(4-((8-(methylsulfonyl)-3H-pyrazolo[3,4-c]quinolin-4-yl)amino)phenyl)methanone]
10 to 100	10 to 100	CS(=O)(=O)c1ccc2nc(Nc3ccc(C(N)=O)cc3)c3[nH]ncc3c2c1 [Example 66, 4-((8-(methylsulfonyl)-3H-pyrazolo[3,4-c]quinolin-4-yl)amino)benzamide]
< 10	10 to 100	CN1CCN(C2CCN(c3ccc(Nc4nc5ccc(S(C)(=O)=O)cc5c5cn[nH]c45)cc3)CC2)CC1 [Example 67, N-(4-(4-(4-methylpiperazin-1-yl)piperidin-1-yl)phenyl)-8-(methylsulfonyl)-3H-pyrazolo[3,4-c]quinolin-4-amine]
100 to 1000	10 to 100	CC(=O)N1CCN(c2ccc(Nc3nc4ccc(C)cc4c4cn[nH]c34)cc2)CC1 [Example 73, 1-(4-(4-((8-methyl-3H-pyrazolo[3,4-c]quinolin-4-yl)amino)phenyl)piperazin-1-yl)ethan-1-one]
100 to 1000	10 to 100	Cc1ccc2nc(Nc3ccc(N4CCOCC4)cc3)c3[nH]ncc3c2c1 [Example 74, 8-methyl-N-(4-morpholinophenyl)-3H-pyrazolo[3,4-c]quinolin-4-amine]
100 to 1000	10 to 100	CS(=O)(=O)c1ccc2nc(Nc3ccc(N4CCOC4=O)cc3)c3[nH]ncc3c2c1 [Example 76, 3-(4-((8-(methylsulfonyl)-3H-pyrazolo[3,4-c]quinolin-4-yl)amino)phenyl)oxazolidin-2-one]
< 10	< 10	CS(=O)(=O)c1ccc2nc(Nc3ccc4c(c3)NC(=O)CCC4)c3[nH]ncc3c2c1 [Example 77, 8-((8-(methylsulfonyl)-3H-pyrazolo[3,4-c]quinolin-4-yl)amino)-4,5-dihydro-1H-benzo[b]azepin-2(3H)-one]
10 to 100	10 to 100	CC(C)(C)N1CCN(c2ccc(Nc3nc4ccc(S(C)(=O)=O)cc4c4cn[nH]c34)cc2)CC1 [Example 80, N-(4-(4-(tert-butyl)piperazin-1-yl)phenyl)-8-(methylsulfonyl)-3H-pyrazolo[3,4-c]quinolin-4-amine]
10 to 100	< 10	COc1cccc2nc(Nc3cnn(C4CCN(C)CC4)c3)c3[nH]ncc3c12 [Example 118, 9-methoxy-N-(1-(1-methylpiperidin-4-yl)-1H-pyrazol-4-yl)-3H-pyrazolo[3,4-c]quinolin-4-amine]
10 to 100	100 to 1000	CS(=O)(=O)c1ccc2c(c1)nc(Nc1ccc3c(c1)NC(=O)CCC3)c1[nH]ncc12 [Example 119, 8-((7-(methylsulfonyl)-3H-pyrazolo[3,4-c]quinolin-4-yl)amino)-4,5-dihydro-1H-benzo[b]azepin-2(3H)-one]
10 to 100	< 10	CS(=O)(=O)c1ccc2c(c1)nc(Nc1cnn(C3CCOCC3)c1)c1[nH]ncc12 [Example 120, 7-(methylsulfonyl)-N-(1-(tetrahydro-2H-pyran-4-yl)-1H-pyrazol-4-yl)-3H-pyrazolo[3,4-c]quinolin-4-amine]
10 to 100	< 10	CS(=O)(=O)c1ccc2nc(Nc3cnn(C4CCOCC4)c3)c3[nH]ncc3c2c1 [Example 143, 8-(methylsulfonyl)-N-(1-(tetrahydro-2H-pyran-4-yl)-1H-pyrazol-4-yl)-3H-pyrazolo[3,4-c]quinolin-4-amine]
10 to 100	100 to 1000	CN1CCC(n2cc(Nc3nc4cc(S(C)(=O)=O)ccc4c4cn[nH]c34)cn2)CC1 [Example 167, N-(1-(1-methylpiperidin-4-yl)-1H-pyrazol-4-yl)-7-(methylsulfonyl)-3H-pyrazolo[3,4-c]quinolin-4-amine]
10 to 100	10 to 100	CC(=O)N1CCC(n2cc(Nc3nc4cc(S(C)(=O)=O)ccc4c4cn[nH]c34)cn2)CC1 [Example 168, 1-(4-(4-((7-(methylsulfonyl)-3H-pyrazolo[3,4-c]quinolin-4-yl)amino)-1H-pyrazol-1-yl)piperidin-1-yl)ethan-1-one]
